# Read-outs that look alike come from different tables or passages of the source.
# Key:
# A431 (epidermoid) = test: MTT cytotoxicity assay, A431; type: cell-based; settings: Homo sapiens, read-out: IC50 (nM) A431
# Procedure: (§1) The cytotoxicity potential of the compounds of the invention 16c-h was compared with the comparative compounds 16a, 16b and GWL-78 in a number of tumour cell lines and the non-cancer cell line WI38 after 96 hours exposure using the MTT (3-(4,5-Dimethylthiazol-2-yl)-2,5-diphenyltetrazolium bromide) colorimetric assay, as described below.
# (§2) A panel of several types of human cancer cell lines including epidermoid (A431), lung (A549), ovarian (A2780) and breast (MCF7 and MDAMB-231), as well as the non-tumour cell line WI38, were used to determine the cytotoxicity of the compounds. The cells were grown in normal conditions at 37° C. under a 5% CO2 humidified atmosphere, either in Dulbecco's Modified Eagle Medium or Modified Eagle Medium (depending on the cell line), supplemented with 10% fetal bovine serum (Biosera, UK), 1% L-glutamine, 1% non-essential amino acids and 0.05% hydrocortisone (Gibco, Invitrogen, USA). Cells were then seeded into 96-well plates in a total volume of 160 μl, and allowed to reach a 30-40% degree of confluence before starting the experiment. The ligands were dissolved in sterilized ultrapure water at a maximum concentration of 100 μM, and serial decimal dilutions prepared. These were added to the cells in a volume of 40 μl. After 96 hours of continuous exposure to each ligand, the cytotoxicity was determined by the MTT (3-(4,5-Dimethylthiazol-2-yl)-2,5-diphenyltetrazolium bromide) (Lancaster Synthesis Ltd, UK) colorimetric assay (Skehan P, S. R., et al., Journal of the National Cancer Institute 1990, 82, 1107). Absorbance was quantified by spectrophotometry at A=570 nm (ELx808, Bio-Tek Instruments, Inc., USA). IC50 values were calculated by a dose-response analysis using the Origin 6.0™ software.
# A549 (lung) = test: MTT cytotoxicity assay, A549; type: cell-based; settings: Homo sapiens, read-out: IC50 (nM) A549
# Procedure: as §1, §2
# A2780 (ovarian) = test: MTT cytotoxicity assay, A2780; type: cell-based; settings: Homo sapiens, read-out: IC50 (nM) A2780
# Procedure: as §1, §2
# MCF7 (breast) = test: MTT cytotoxicity assay, MCF7; type: cell-based; settings: Homo sapiens, read-out: IC50 (nM) MCF7
# Procedure: as §1, §2
# MDAMB-231 (breast) = test: MTT cytotoxicity assay, MDAMB-231; type: cell-based; settings: Homo sapiens, read-out: IC50 (nM) MDAMB-231
# Procedure: as §1, §2
# Mia Paca 2 = test: MTT cytotoxicity assay, Mia Paca 2; type: cell-based; settings: Homo sapiens, read-out: IC50 (nM) Mia Paca 2
# Procedure: as §1, §2
# WI38 = test: MTT cytotoxicity assay, non-tumour cell line WI38; type: cell-based; settings: Homo sapiens, read-out: IC50 (nM) WI38
# Procedure: as §1, §2
# primary CLL cells = test: Annexin V/propidium iodide flow cytometry assay in primary CLL cells; type: cell-based; settings: CLL cell
# Procedure: The cytotoxicity potential of the compounds of the invention 16c-h was also compared with the comparative compounds 16a, 16b and GWL-78 in a primary CLL cell lines using the Annexin V assay (van Engeland, M, et al., Cytometry 1998, 31, 1-9), as described below.
# Freshly isolated peripheral blood CLL cells (1×10^8 mL^−1) were cultured in RPMI medium (Invitrogen, Paisley, U.K.) supplemented with 100 U/mL penicillin, […] streptomycin, and 10% fetal calf serum. The cells were incubated at 37° C. in a humidified 5% CO2 atmosphere in the presence of each compound. All compounds were dissolved in DMSO and were evaluated in serial dilutions against the primary CLL cells. In addition, control cultures were carried out to which no drug was added. The cytotoxic effects of the compounds were quantified using an annexin V/propidium iodide flow cytometry assay (Bender Medsystems, Vienna, Austria). All assays were performed in duplicate, and LD50 values were calculated from sigmoidal dose-response curves using the Prism 6.0 software (Graphpad Software Inc., San Diego, Calif.). The sigmoidal dose-response curves were derived by plotting log [compound concentration] against the percentage apoptosis induced by that concentration. A wide range of concentrations were used to establish the biologically active range for each individual compound.
# [1] = MTD (maximum tolerated dose) study, intraperitoneal dosing; type: in vivo, mouse; settings: Swiss-Webster mice, IP, 400 μg/Kg/day
# Procedure: Initially a small scale study was carried out to determine the MTD (maximum tolerated dose) in Swiss-Webster mice using intraperitoneal dosing (IP). […] As 16f provided a marginally better toxicity profile in the MTD study, it was decided to carry out more extensive in vivo tumour xenograft studies on this molecule.
# DNA = settings: cited from earlier work
SMILES,"IC50 (A431 (epidermoid); A-431, 96 h) [nM]","IC50 (A549 (lung); A549, 96 h) [nM]","IC50 (A2780 (ovarian); A2780, 96 h) [nM]","IC50 (MCF7 (breast); MCF7, 96 h) [nM]","IC50 (MDAMB-231 (breast); MDA-MB-231, 96 h) [nM]","IC50 (Mia Paca 2; MIA PaCa-2, 96 h) [nM]","IC50 (WI38; WI-38, 96 h) [nM]",IC50 (primary CLL cells) [nM],weight loss [1],"IC50 (A431 (epidermoid); A-431, 96 hours exposure, MTT) [nM]","IC50 (A549 (lung); A549, 96 hours exposure, MTT) [nM]","IC50 (A2780 (ovarian); A2780, 96 hours exposure, MTT) [nM]","IC50 (MCF7 (breast); MCF7, 96 hours exposure, MTT) [nM]","IC50 (MDAMB-231 (breast); MDA-MB-231, 96 hours exposure, MTT) [nM]","IC50 (Mia Paca 2; MIA PaCa-2, 96 hours exposure, MTT) [nM]","IC50 (WI38; WI-38, 96 hours exposure, MTT, non-cancer cell line) [nM]","IC50 (primary CLL cells; primary CLL cells, annexin V/propidium iodide, apoptosis, read-out: IC50) [nM]",increase in DNA binding affinity compared to constituent PBD and dipyrrole components (DNA)
"COC(=O)c1cc(-c2ccc(NC(=O)CCCOc3cc4c(cc3OC)C(=O)N3CCC[C@H]3C=N4)cc2)cn1C [Compound 16a, (S)-methyl 4-(4-(4-(7-methoxy-5-oxo-2,3,5,11a-tetrahydro-1H-pyrrolo[2,1-c][1,4]benzodiazepine-8-yloxy)butanamido)phenyl)-1-methyl-1H-pyrrole-2-carboxylate]",2.31,7.5,1.87,1.91,2.11,1.2,160,6.2,–,–,–,–,–,–,–,–,–,–
"COC(=O)c1cc(-c2ccc(NC(=O)c3cc(-c4ccc(NC(=O)CCCOc5cc6c(cc5OC)C(=O)N5CCC[C@H]5C=N6)cc4)cn3C)cc2)cn1C [Compound 16b, (S)-methyl 4-(4-(4-(4-(4-(7-methoxy-5-oxo-2,3,5,11a-tetrahydro-1H-pyrrolo[2,1-c][1,4]benzodiazepine-8-yloxy)butanamido)phenyl)-1-methyl-1H-pyrrole-2-carboxamido)phenyl)-1-methyl-1H-pyrrole-2-carboxylate]",2.91,0.54,0.56,0.9,0.46,0.35,159,4.7,–,–,–,–,–,–,–,–,–,–
"COC(=O)c1cc(NC(=O)c2cc(-c3ccc(NC(=O)CCCOc4cc5c(cc4OC)C(=O)N4CCC[C@H]4C=N5)cc3)cn2C)cn1C [Compound 16c, (S)-methyl 4-(4-(4-(4-(7-methoxy-5-oxo-2,3,5,11a-tetrahydro-1H-pyrrolo[2,1-c][1,4]benzodiazepine-8-yloxy)butanamido)phenyl)-1-methyl-1H-pyrrole-2-carboxamido)-1-methyl-1H-pyrrole-2-carboxylate]",4.6,0.019,0.96,1.7,2.7,0.34,426,2.1,–,–,–,–,–,–,–,–,–,–
"CCOC(=O)c1nc(NC(=O)c2cc(-c3ccc(NC(=O)CCCOc4cc5c(cc4OC)C(=O)N4CCC[C@H]4C=N5)cc3)cn2C)cn1C [Compound 16d, (S)-ethyl 4-(4-(4-(4-(7-methoxy-5-oxo-2,3,5,11a-tetrahydro-1H-pyrrolo[2,1-c][1,4]benzodiazepine-8-yloxy)butanamido)phenyl)-1-methyl-1H-pyrrole-2-carboxamido)-1-methyl-1H-imidazole-2-carboxylate]",0.19,0.47,0.15,0.37,0.45,0.11,1240,3,–,–,–,–,–,–,–,–,–,–
"COC(=O)c1cc(-c2ccc(NC(=O)c3cc(NC(=O)CCCOc4cc5c(cc4OC)C(=O)N4CCC[C@H]4C=N5)cn3C)cc2)cn1C [Compound 16e, (S)-methyl 4-(4-(4-(4-(7-methoxy-5-oxo-2,3,5,11a-tetrahydro-1H-pyrrolo[2,1-c][1,4]benzodiazepine-8-yloxy)butanamido)-1-methyl-1H-pyrrole-2-carboxamido)phenyl)-1-methyl-1H-pyrrole-2-carboxylate]",0.0056,0.056,0.013,–,–,0.0013,474,0.098,minor weight loss,–,–,–,–,–,–,–,–,–
"COC(=O)c1cc(NC(=O)c2cc(NC(=O)c3cc(-c4ccc(NC(=O)CCCOc5cc6c(cc5OC)C(=O)N5CCC[C@H]5C=N6)cc4)cn3C)cn2C)cn1C [Compound 16g, (S)-methyl 4-(4-(4-(4-(4-(7-methoxy-5-oxo-2,3,5,11a-tetrahydro-1H-pyrrolo[2,1-c][1,4]benzodiazepine-8-yloxy)butanamido)phenyl)-1-methyl-1H-pyrrole-2-carboxamido)-1-methyl-1H-pyrrole-2-carboxamido)-1-methyl-1H-pyrrole-2-carboxylate]",0.86,2.3,0.24,0.31,0.59,0.31,41.3,0.96,–,–,–,–,–,–,–,–,–,–
"COC(=O)c1cc(NC(=O)c2nc(NC(=O)c3cc(-c4ccc(NC(=O)CCCOc5cc6c(cc5OC)C(=O)N5CCC[C@H]5C=N6)cc4)cn3C)cn2C)cn1C [Compound 16h, (S)-methyl 4-(4-(4-(4-(4-(7-methoxy-5-oxo-2,3,5,11a-tetrahydro-1H-pyrrolo[2,1-c][1,4]benzodiazepine-8-yloxy)butanamido)phenyl)-1-methyl-1H-pyrrole-2-carboxamido)-1-methyl-1H-imidazole-2-carboxamido)-1-methyl-1H-pyrrole-2-carboxylate]",0.306,0.45,–,0.075,0.015,0.25,65.6,0.037,–,–,–,–,–,–,–,–,–,–
"COC(=O)c1ccc(NC(=O)c2ccc(NC(=O)CCCOc3cc4c(cc3OC)C(=O)N3CCC[C@H]3C=N4)n2C)n1C [GWL-78, reference compound]",–,–,–,–,–,–,–,–,–,0.55,6.1,0.57,0.32,0.12,2.4,41.3,1.3,up to 50 fold
